Measured values: US20250270213A1, “PI3Ka INHIBITORS” (Synnovation Therapeutics, Inc., priority 2022, published 2025)

Test system: T47D (PIK3CA H1047R) cells
Assay: pS473 AKT assay with 2.5% FBS, T47D cells
Type: cell-based
Details: Homo sapiens, pSer473 AKT, DMEM with 2.5% FBS, 2 h treatment, read-out: T47D_IC50
Description: Example B. pS473 AKT Assay Protocol with 2.5% FBS
T47D (PIK3CA H1047R) cells were cultured using 10-cm petri dishes with recommended medium plus 10% fetal bovine serum. One day before the assay, cells were seeded in 96-well plates. After overnight incubation, the medium was changed to DMEM with 2.5% fetal bovine serum (FBS) and the cells were treated with different concentrations of the compounds for 2 h. Cells were then fixed using 4% paraformaldehyde at room temperature for 20 min. Aspirate 4% paraformaldehyde, and wash cells using 1× regular phosphate buffered saline 3 times, 5 min each. Aspirate any residual phosphate buffered saline and block cells using 10% goat serum containing 1% bovine serum albumin and 0.3% Triton X-100 at room temperature for 1 h. Without any additional washing, primary antibodies (rabbit anti-pSer473 AKT) were diluted using blocking buffer and added at a final volume of 50 microliter per well. Keep assay plates with primary antibodies overnight at 4° C. Wash cells using 1× regular phosphate buffered saline 3 times, 5 min each. After the final wash, incubate cells with horseradish peroxidase-conjugated secondary antibodies (goat Anti-rabbit IgG) diluted using the same blocking buffer at room temperature for 1 h. Wash cells thoroughly using 1× regular phosphate buffered saline 3 times, 5 min each. Aspirate any residual phosphate buffered saline. Add Super-Signal ELISA Pico Chemiluminescent Substrate at a final volume of 100 microliter per well. Read plates on i3x Multi-Mode Microplate Reader and calculate IC50 values using GraphPad Prism software.

IC50, < 1 µM:
CCCn1ncc2c3c(C(C)Nc4ccc(Cl)nc4-c4noc(=O)[nH]4)cc(C)cc3c(=O)n(C)c21 (stereo not shown) [Compound 65, 3-(6-Chloro-3-((1-(4,7-dimethyl-5-oxo-3-propyl-4,5-dihydro-3H-pyrazolo[3,4-c]isoquinolin-9-yl)ethyl)amino)pyridin-2-yl)-1,2,4-oxadiazol-5(4H)-one]
Cc1cc(C(C)Nc2ccc(Cl)nc2-c2noc(=O)[nH]2)c2c(c1)c(=O)n(C)c1c2cnn1C1CCOC1 (stereo not shown) [Compound 66, 3-(6-Chloro-3-((1-(4,7-dimethyl-5-oxo-3-(tetrahydrofuran-3-yl)-4,5-dihydro-3H-pyrazolo[3,4-c]isoquinolin-9-yl)ethyl)amino)pyridin-2-yl)-1,2,4-oxadiazol-5(4H)-one]
COCCn1ncc2c3c(C(C)Nc4ccc(Cl)nc4-c4noc(=O)[nH]4)cc(C)cc3c(=O)n(C)c21 (stereo not shown) [Compound 67, 3-(6-Chloro-3-((1-(3-(2-methoxyethyl)-4,7-dimethyl-5-oxo-4,5-dihydro-3H-pyrazolo[3,4-c]isoquinolin-9-yl)ethyl)amino)pyridin-2-yl)-1,2,4-oxadiazol-5(4H)-one]
Cc1cc(C(C)Nc2ccc(Cl)nc2-c2noc(=O)[nH]2)c2c(c1)c(=O)n(C)c1c2cnn1CC1CC1 (stereo not shown) [Compound 68, 3-(6-Chloro-3-((1-(3-(cyclopropylmethyl)-4,7-dimethyl-5-oxo-4,5-dihydro-3H-pyrazolo[3,4-c]isoquinolin-9-yl)ethyl)amino)pyridin-2-yl)-1,2,4-oxadiazol-5(4H)-one]
CCn1ncc2c3c(C(C)Nc4ccc(Cl)nc4-c4noc(=O)[nH]4)cc(C(F)(F)F)cc3c(=O)n(C)c21 (stereo not shown) [Compound 69, 3-(6-Chloro-3-((1-(3-ethyl-4-methyl-5-oxo-7-(trifluoromethyl)-4,5-dihydro-3H-pyrazolo[3,4-c]isoquinolin-9-yl)ethyl)amino)pyridin-2-yl)-1,2,4-oxadiazol-5(4H)-one]
Cc1cc(C(C)Nc2ccc(Cl)nc2-c2noc(=O)[nH]2)c2c(c1)c(=O)n1c3c2cnn3C(C)CC1 (stereo not shown) [Compound 70, 3-(6-Chloro-3-((1-(3,8-dimethyl-6-oxo-4,5-dihydro-3H,6H-2,2a,5a-triazaaceanthrylen-10-yl)ethyl)amino)pyridin-2-yl)-1,2,4-oxadiazol-5(4H)-one]
CCc1ncn2c3c(C(C)Nc4ccc(Cl)nc4-c4noc(=O)[nH]4)cc(C)cc3c(=O)n(C)c12 (stereo not shown) [Compound 71, 3-(6-Chloro-3-((1-(3-ethyl-4,7-dimethyl-5-oxo-4,5-dihydroimidazo[1,5-a]quinazolin-9-yl)ethyl)amino)pyridin-2-yl)-1,2,4-oxadiazol-5(4H)-one]
CCn1ncc2c3c(C(C)Nc4cccnc4-c4nnn[nH]4)cc(C)cc3c(=O)n(C)c21 (stereo not shown) [Compound 72, 9-(1-((2-(1H-Tetrazol-5-yl)pyridin-3-yl)amino)ethyl)-3-ethyl-4,7-dimethyl-3,4-dihydro-5H-pyrazolo[3,4-c]isoquinolin-5-one]
CCn1ncc2c3c(C(C)Nc4ccc(Cl)nc4C(=O)NC4CCN(C)CC4)cc(C)cc3c(=O)n(C)c21 (stereo not shown) [Compound 73, 6-Chloro-3-((1-(3-ethyl-4,7-dimethyl-5-oxo-4,5-dihydro-3H-pyrazolo[3,4-c]isoquinolin-9-yl)ethyl)amino)-N-(1-methylpiperidin-4-yl)picolinamide]
CCn1ncc2c3c(C(C)Nc4ccc(Cl)nc4C(=O)Nc4ccncc4)cc(C)cc3c(=O)n(C)c21 (stereo not shown) [Compound 74, 6-chloro-3-((1-(3-ethyl-4,7-dimethyl-5-oxo-4,5-dihydro-3H-pyrazolo[3,4-c]isoquinolin-9-yl)ethyl)amino)-N-(pyridin-4-yl)picolinamide]
CCn1ncc2c3c(C(C)Nc4ccc(Cl)nc4C(=O)NOC)cc(C)cc3c(=O)n(C)c21 (stereo not shown) [Compound 75, 6-chloro-3-((1-(3-ethyl-4,7-dimethyl-5-oxo-4,5-dihydro-3H-pyrazolo[3,4-c]isoquinolin-9-yl)ethyl)amino)-N-methoxypicolinamide]
CCn1ncc2c3c(C(CO)Nc4ccc(Cl)nc4-c4ccncc4F)cc(C)cc3c(=O)n(C)c21 (stereo not shown) [Compound 76, 9-(1-((6-Chloro-3′-fluoro-[2,4′-bipyridin]-3-yl)amino)-2-hydroxyethyl)-3-ethyl-4,7-dimethyl-3,4-dihydro-5H-pyrazolo[3,4-c]isoquinolin-5-one]
CCn1ncc2c3c(C(CO)Nc4ccc(Cl)nc4-c4cnn(C)c4)cc(C)cc3c(=O)n(C)c21 (stereo not shown) [Compound 77, 9-(1-((6-Chloro-2-(1-methyl-1H-pyrazol-4-yl)pyridin-3-yl)amino)-2-hydroxyethyl)-3-ethyl-4,7-dimethyl-3,4-dihydro-5H-pyrazolo[3,4-c]isoquinolin-5-one]
CCn1ncc2c3c(C(CO)Nc4ccc(Cl)nc4-c4cnn(C)c4C)cc(C)cc3c(=O)n(C)c21 (stereo not shown) [Compound 78, 9-(1-((6-Chloro-2-(1,5-dimethyl-1H-pyrazol-4-yl)pyridin-3-yl)amino)-2-hydroxyethyl)-3-ethyl-4,7-dimethyl-3,4-dihydro-5H-pyrazolo[3,4-c]isoquinolin-5-one]
CCn1ncc2c3c(C(C)Nc4ccc(Cl)nc4-c4cnn(C5CCN(C)CC5)c4)cc(C)cc3c(=O)n(C)c21 (stereo not shown) [Compound 79, 9-(1-((6-Chloro-2-(1-(1-methylpiperidin-4-yl)-1H-pyrazol-4-yl)pyridin-3-yl)amino)ethyl)-3-ethyl-4,7-dimethyl-3,4-dihydro-5H-pyrazolo[3,4-c]isoquinolin-5-one]
CCn1ncc2c3c(C(C)Nc4ccc(Cl)nc4N4CCN(C(C)=O)CC4)cc(C)cc3c(=O)n(C)c21 (stereo not shown) [Compound 80, 9-(1-((2-(4-Acetylpiperazin-1-yl)-6-chloropyridin-3-yl)amino)ethyl)-3-ethyl-4,7-dimethyl-3,4-dihydro-5H-pyrazolo[3,4-c]isoquinolin-5-one]
Cc1cc(C(C)Nc2ccc(Cl)nc2-c2cnn(C)c2)c2c(c1)c(=O)n(C)c1c2cnn1C1CN(C)C1 (stereo not shown) [Compound 81, 9-(1-((6-Chloro-2-(1-methyl1H-pyrazol-4-yl)pyridin-3-yl)amino)ethyl)-4,7-dimethyl-3-(1-methylazetidin-3-yl)-3,4-dihydro-5H-pyrazolo[3,4-c]isoquinolin-5-one]
Cc1cc(C(C)Nc2ccc(Cl)nc2-c2ncn(C)n2)c2c(c1)c(=O)n(C)c1c2cnn1C1CN(C)C1 (stereo not shown) [Compound 82, 9-(1-((6-chloro-2-(1-methyl-1H-1,2,4-triazol-3-yl)pyridin-3-yl)amino)ethyl)-4,7-dimethyl-3-(1-methylazetidin-3-yl)-3,4-dihydro-5H-pyrazolo[3,4-c]isoquinolin-5-one]
Cc1cc(C(C)Nc2ccc(Cl)nc2-c2ncn(CCO)n2)c2c(c1)c(=O)n(C)c1c2cnn1C1CN(C)C1 (stereo not shown) [Compound 83, 9-(1-((6-chloro-2-(1-(2-hydroxyethyl)-1H-1,2,4-triazol-3-yl)pyridin-3-yl)amino)ethyl)-4,7-dimethyl-3-(1-methylazetidin-3-yl)-3,4-dihydro-5H-pyrazolo[3,4-c]isoquinolin-5-one]
